Experimental data taken from patent US7799813B2, “Salts of substituted 5-membered azacycle and use thereof in the treatment of diseases related to protein aging” (Beijing Molecule Science and Technology Co., Ltd., priority 2006, dated 2010).

Experiments:
[1] = system: AGE-BSA-collagen cross-links; experiment: Elisa screening experiment on the breaking of AGE-BSA collagen cross-links; type: biochemical, rat; conditions: 37° C., 16 hours, OD 450 nm, averages of more than three screening results
Procedure: AGE cross-links were prepared in vitro by cross-linking AGE-BSA to rat tail tendon collagen-coated 96 well microtiter plates. ELISA method was used to evaluate the breaking effect of the compounds on AGE cross-links.
Normal Wister rats (body weight 200±20 g) were sacrificed acutely, then the tails were excised, and tail collagen was prepared at a temperature of 4° C. as follows: tail tendon collagen fibrils were taken out, washed with physiological saline, peeled off non-collagen fibril tissue, rinsed with distilled deionized water 3 times, cut into pieces, and immersed in 0.1% acetic acid at 4° C. for one week during which the immersion liquid was shaken frequently. Finally, the immersion liquid was subjected to a centrifuge treatment at 8000 G for 30 minutes, and supernatant collagen solution was collected. After dilution, protein content was measured. 96 well microtiter plates (Costar) were full-well coated with the collagen solution in an amount of 70 μg/well at 4° C. for 24 hours, then the coating solution was discarded. The plates were dried in air under sterile condition, coated with a fresh-keeping film, and finally stored at 4° C. for use.
A solution containing 50 mg/ml of bovine serum albumin BAS (V) (Roch) and 0.5M of glucose in 0.2M PBS (pH 7.4) was incubated at 37° C. under sterile condition for 3-4 months, to thereby form glycosylated BSA, i.e. BSA-AGE. At the same time, non-glycosylated BSA was prepared with glucose-free BSA. Then the BSA-AGE solution was dialyzed against 0.01M PBS (pH 7.4) to be removed of unreacted glucose. Fluorescence scanning (Exi/Em (395/460 nm)) and SDS-PAGE were used to check the formation of BSA-AGE, and protein concentration was determined by the Lowery method.
The tail collagen-coated 96 well microtiter plates were full-well treated with PBS (pH 7.4) for 1 hour to neutralize the acidic collagen. Then the plates were blocked with Superblock (PIERCE) at 37° C. for 1 hour, and washed with PBST (PBS-Tween) three times while shaking for 1 minute for each time of washing. AGE-BSA was diluted in PBS to a concentration required to obtain maximum cross-linking. 100 μl of the AGE-BSA solution was added to wells in the rows labeled as A, B, C, and D of the 96 well plates, and BSA solution of the same concentration was added to wells in the rows labeled as E, F, G, and H. The first three wells in each row were filled with PBS for the reagent blank. The plates were incubated at 37° C. for 4 hours to allow the collagen crosslink, and washed with PBST four times while shaking for 1 minute for each time of washing. Test compounds were diluted in PBS of pH 7.4. A test compound was added to quadruplicate AGE-BSA cross-links wells and quadruplicate BSA wells in an amount of 100 μl/well. PBS was added in an amount of 100 μl/well in the same way as non-breaking contrast. The plates were incubated at 37° C. for 16 hours and washed four times with PBST while shaking for 1 minute for each time of washing. 80 μl/well of Rabbit-anti-BSA antibody (1:500) was added to the wells and the plates were incubated at 37° C. for 50 minutes. After the plates were washed with PBST four times while shaking for 1 minute for each time of washing, 80 μl/well of horseradish peroxidase-labelled-goat-anti-rabbit IgG (1:1000) was added to the wells. The plates were incubated at 37° C. for 50 minutes, and then washed with PBST three times while shaking for 1 minute for each time of washing. 100 μl/well of TMB substrate (3,3′,5,5′-tetramethylbenzidine) was added to the wells. The plates were incubated at room temperature at dark place for 20 minutes. 2M H2SO4 was used to terminate the reaction. Within 10 minutes after the reaction, optical density was read at 450 nm on the BOBRAD Model 550 plate reader with the blank wells of the plates was set to 0.
The average optical density (OD) was calculated for each quadruplicate determination. […]

Row | melting point [°C] | SMILES | Breaking rate (decrease % in OD) ([1]; test compound 0.1 mmol/L) [%] | Breaking rate (decrease % in OD) ([1]; test compound 1 mmol/L) [%]
1 | 223 to 230 | Cc1csc[n+]1CC(=O)O.[Br-] [Compound 5, 3-carboxymethyl-4-methyl-thiazole-3-bromide] | – | –
2 | – | Cc1sc[n+](CC(=O)c2ccccc2)c1C.[Cl-] [ALT-711, reference compound] | 13.4 ± 6.41 | 15.2 ± 8.43
3 | – | Cc1sc[n+](CC(=O)OCc2ccccc2)c1C.[Br-] [Compound 1, 3-benzyloxycarbonylmethyl-4,5-dimethyl-thiazole-3-bromide] | 9.65 ± 3.55 | 10.81 ± 3.86
4 | 160 to 166 | O=C(C[n+]1csc2c1CCCC2)OCc1ccccc1.[Br-] [Compound 4, 3-benzyloxycarbonylmethyl-4,5,6,7-tetrahydro-benzothiazole-3-bromide] | 8.45 ± 5.35 | 7.17 ± 2.40
5 | 217 to 218 | Cc1csc[n+]1CC(=O)OCc1ccccc1.[Br-] [Compound 3, 3-benzyloxycarbonylmethyl-4-methyl-thiazole-3-bromide] | 16.16 ± 7.07 | 26.46 ± 18.2
6 | – | Cc1c(CCO)sc[n+]1CC(=O)OCc1ccccc1.[Br-] [Compound 2, 3-benzyloxycarbonylmethyl-5-(2-hydroxyethyl)-4-methyl-thiazole-3-bromide] | 13.5 ± 9.53 | 13.25 ± 10.29
